The source of these data is BindingDB's records for doi:10.1021/jm020122x (The Royal Danish School of Pharmacy, 2002).

In this experiment the target is Metabotropic glutamate receptor 2 (Rattus norvegicus) (UniProt P31421). In words: Compound was evaluated for the inhibitory activity against cloned Metabotropic glutamate receptor 2.
Sequence of Metabotropic glutamate receptor 2 (Rattus norvegicus) (P31421 whole entry, looked up): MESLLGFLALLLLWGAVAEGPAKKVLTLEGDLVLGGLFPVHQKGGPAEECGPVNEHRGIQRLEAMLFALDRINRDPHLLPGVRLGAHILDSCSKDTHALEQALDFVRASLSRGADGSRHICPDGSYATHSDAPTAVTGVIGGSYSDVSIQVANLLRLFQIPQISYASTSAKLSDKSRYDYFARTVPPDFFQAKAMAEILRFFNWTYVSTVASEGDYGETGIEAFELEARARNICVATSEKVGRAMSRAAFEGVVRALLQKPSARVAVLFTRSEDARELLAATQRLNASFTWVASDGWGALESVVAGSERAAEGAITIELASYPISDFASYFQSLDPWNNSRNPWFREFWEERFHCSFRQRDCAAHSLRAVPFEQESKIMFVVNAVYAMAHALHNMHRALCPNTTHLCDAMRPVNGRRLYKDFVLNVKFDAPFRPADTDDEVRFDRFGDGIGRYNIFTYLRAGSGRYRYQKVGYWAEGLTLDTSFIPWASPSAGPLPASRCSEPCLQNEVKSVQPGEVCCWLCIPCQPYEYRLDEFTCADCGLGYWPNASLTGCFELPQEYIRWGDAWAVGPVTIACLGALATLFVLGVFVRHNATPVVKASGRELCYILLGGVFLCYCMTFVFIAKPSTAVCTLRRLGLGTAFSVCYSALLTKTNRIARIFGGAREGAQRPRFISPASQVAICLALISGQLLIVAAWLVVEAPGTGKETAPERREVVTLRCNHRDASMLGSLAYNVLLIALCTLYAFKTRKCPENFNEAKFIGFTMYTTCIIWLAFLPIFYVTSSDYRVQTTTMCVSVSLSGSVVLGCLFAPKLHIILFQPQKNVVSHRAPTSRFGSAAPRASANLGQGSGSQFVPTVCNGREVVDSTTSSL

In turn, `Cc1o[nH]c(=O)c1CC[C@H](N)C(=O)O` [2-Amino-4-(3-hydroxy-5-methyl-isoxazol-4-yl)-butyric acid(S-homo-AMPA)] returned an EC50 of more than 1000 µM. With `Cc1o[nH]c(=O)c1CC[C@@H](N)C(=O)O` [(R)-2-Amino-4-(3-hydroxy-5-methyl-isoxazol-4-yl)-butyric acid] the figure was more than 1000 µM.
